Experimental data published in patent US9394314B2, “8′-hydroxy-dihydroergotamine compounds and compositions” (priority 2012, dated 2016).

What was measured:
[1] = cited from earlier work
[2] = subcutaneously, concentration 1.5 mM; cited from earlier work
human 5-HT1D receptor = target: T1, human 5-HT1D receptor (Homo sapiens, UniProt P28221); assay: Radioligand binding assay (competition and kinetics), CHO-K1 membranes
T1 construct: purchased Euroscreen; host or cells: CHO-K1
Procedure: (§1) For kinetics of radioligand competitive binding, serial dilutions were performed from master solution in 100% DMSO to obtain intermediate concentrations 200-fold higher than the concentrations to be tested. Each test sample was diluted 100-fold in the assay buffer and dispensed into the test plate.
5-HT1D Radioligand Binding Assay
Assay buffer: 50 mM Tris (pH 7.4), 4 mM CaCl2, 0.1% ascorbic acid
(§2) Washing buffer: 50 mM Tris (pH 7.4)
Membrane: recombinant CHO-K1-5-HT1D membranes thawed on ice and diluted in assay buffer (10 μg/well)
Ligand: 5-HT (Sigma, H-9523)
(§3) Determination of IC50 and Ki constant for each test compound. […] After washing the filters 5 times with 0.5 mL of ice-cold washing buffer, 50 μL of Microscint 20 (Packard) were added to the filters and the plates were incubated 15 min on an orbital shaker and then counted for 1 min/well. […]
(§4) Determination of kon and koff constants for each test compound. Each compound was first assessed in a pilot experiment to evaluate its effect on the kinetic binding of each receptor-radioligand pair. […] After washing the filters 5 times with 0.5 mL of ice-cold washing buffer, 50 μL of Microscint 20 (Packard) were added to the filters and the plates were incubated 15 min on an orbital shaker and then counted for 1 min/well.

human 5-HT1B receptor = target: T2, human 5-HT1B receptor (Homo sapiens, UniProt P28222); assay: as above
T2 construct: purchased Euroscreen; host or cells: CHO-K1
Procedure: as §1
5-HT1B Radioligand Binding Assay
as §2
Ligand: 5-CT (Tocris, 0458)
Determination of IC50 and Ki constant for each test compound. […] The samples were incubated for 60 min (or 4 hours for a second experiment on 5-HT2B receptors) at a temperature optimized for each receptor and then filtered over a filter plate. After washing the filters 5 times with 0.5 mL of ice-cold washing buffer, 50 μL of Microscint 20 (Packard) were added to the filters and the plates were incubated 15 min on an orbital shaker and then counted for 1 min/well. The test compounds were tested in duplicate at the nanomolar concentrations reported below in Table 5.
as §4

human D2L receptor = target: T3, human D2L receptor (Homo sapiens, UniProt P14416); assay: as above
T3 construct: purchased Euroscreen; host or cells: CHO-K1
Procedure: as §1
D2L Radioligand Binding Assay
Assay buffer: 25 mM HEPES (pH 7.4), 5 mM MgCl2, 1 mM CaCl2, BSA protease free 0.5%
Washing buffer: 25 mM HEPES (pH 7.4), 5 mM MgCl2, 1 mM CaCl2
Membrane: recombinant CHO-K1-D2L membranes thawed on ice and diluted in assay buffer (2 μg/well)
Ligand: Risperidone (Tocris Bioscience, 2865) […]
as §3
as §4, with “min/well. […]” for “min/well.”

T1 sequence (P28221 whole entry): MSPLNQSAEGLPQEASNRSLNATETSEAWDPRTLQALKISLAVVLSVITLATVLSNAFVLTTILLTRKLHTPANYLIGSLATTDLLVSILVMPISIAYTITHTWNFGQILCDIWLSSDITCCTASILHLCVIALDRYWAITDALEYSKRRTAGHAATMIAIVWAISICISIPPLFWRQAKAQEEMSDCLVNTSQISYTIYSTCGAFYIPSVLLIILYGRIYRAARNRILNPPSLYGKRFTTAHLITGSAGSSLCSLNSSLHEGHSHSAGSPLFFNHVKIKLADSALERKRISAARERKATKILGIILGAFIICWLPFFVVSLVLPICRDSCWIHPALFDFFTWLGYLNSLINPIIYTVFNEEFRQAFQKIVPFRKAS
T2 sequence (P28222 whole entry): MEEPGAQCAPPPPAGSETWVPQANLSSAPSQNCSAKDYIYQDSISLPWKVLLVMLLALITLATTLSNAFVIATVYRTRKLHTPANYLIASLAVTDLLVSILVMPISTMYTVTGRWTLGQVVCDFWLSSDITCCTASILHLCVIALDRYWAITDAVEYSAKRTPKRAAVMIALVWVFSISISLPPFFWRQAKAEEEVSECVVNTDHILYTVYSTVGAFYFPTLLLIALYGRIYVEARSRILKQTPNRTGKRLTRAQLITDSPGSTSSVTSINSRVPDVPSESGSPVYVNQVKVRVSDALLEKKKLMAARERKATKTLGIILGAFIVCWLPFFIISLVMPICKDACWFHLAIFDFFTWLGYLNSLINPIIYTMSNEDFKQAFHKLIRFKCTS
T3 sequence (P14416 whole entry): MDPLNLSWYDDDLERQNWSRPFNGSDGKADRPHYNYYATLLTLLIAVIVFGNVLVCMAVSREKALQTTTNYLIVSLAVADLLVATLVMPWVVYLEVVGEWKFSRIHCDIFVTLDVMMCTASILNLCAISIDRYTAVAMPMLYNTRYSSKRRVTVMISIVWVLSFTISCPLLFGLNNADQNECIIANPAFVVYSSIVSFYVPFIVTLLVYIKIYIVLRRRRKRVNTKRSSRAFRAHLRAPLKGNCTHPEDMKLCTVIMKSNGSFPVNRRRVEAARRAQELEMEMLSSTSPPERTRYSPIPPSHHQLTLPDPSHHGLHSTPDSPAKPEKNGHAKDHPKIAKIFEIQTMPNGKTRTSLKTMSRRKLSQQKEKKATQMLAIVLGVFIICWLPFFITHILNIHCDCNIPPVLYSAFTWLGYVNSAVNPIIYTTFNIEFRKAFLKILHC

SMILES: CN1C[C@H](C(=O)N[C@]2(C)O[C@@]3(O)[C@@H]4CCCN4C(=O)[C@H](Cc4ccccc4)N3C2=O)C[C@@H]2c3cccc4[nH]cc(c34)C[C@H]21 [DHE, Dihydroergotamine]
- fraction of administered dose extracted in the urine ([1]; IM administered dose): 6-7%
- total DHE metabolites as share of plasma AUC ([1]; nasal administration of DHE): 20-30%
- treated patients with nausea [2]: ~16%

SMILES: CN1C[C@H](C(=O)N[C@]2(C)O[C@@]3(O)[C@@H]4CCC(O)N4C(=O)[C@H](Cc4ccccc4)N3C2=O)C[C@@H]2c3cccc4[nH]cc(c34)C[C@H]21 (stereo partly shown) [8′-OH DHE, 8′-Hydroxy-Dihydroergotamine]
- Avg Koff (human 5-HT1D receptor): 0.000175 s⁻¹
- Avg Koff (human 5-HT1B receptor): 9.83e-05 s⁻¹
- Avg Koff (human D2L receptor): 0.00127 s⁻¹
- concentration of 8′-OH DHE metabolite relative to parent DHE ([1]; previous studies): 5 to 7 times
